Source: US6436966B1, “Adenosine A3 receptor antagonists” (Takeda Chemical Ind., Ltd., priority 1997, dated 2002)
Counter-ions that a name gives are not always drawn.

System: not given
Assay: not given
Conditions: not given

melting point | Compound
275 to 278 °C | COc1ccc(-c2nc(NC(C)=O)sc2-c2ccncc2)cc1 (as salt: HCl) [13-89]
213 to 216 °C | COc1ccc(-c2nc(NC(=O)C(C)C)sc2-c2cccnc2)cc1 [13-92]

The remaining lines, values behind:

Compound | melting point
CC(C)(C)c1ccc(-c2sc(N)nc2-c2ccncc2)cc1 [Example Compound 4-1, [5-[4-(1,1-dimethylethyl)phenyl]-4-(4-pyridyl)-1,3-thiazol-2-yl]amine] | 275 to 277 °C
Cc1cc(C)cc(-c2sc(N)nc2-c2ccncc2)c1 [Example Compound 4-2, [5-(3,5-dimethylphenyl)-4-(4-pyridyl)-1,3-thiazol-2-yl]amine] | 262 to 263 °C
CC(=O)Nc1nc(-c2ccncc2)c(-c2ccc(C(C)(C)C)cc2)s1 [Example Compound 5-1, N-[5-[4-(1,1-dimethylethyl)phenyl]-4-(4-pyridyl)-1,3-thiazol-2-yl]acetamide] | 245 to 246 °C
CC(=O)Nc1nc(-c2ccncc2)c(-c2cc(C)cc(C)c2)s1 [Example Compound 5-2, N-[5-(3,5-dimethylphenyl)-4-(4-pyridyl)-1,3-thiazol-2-yl]acetamide] | 304 to 308 °C

Biological target: T1, human adenosine A3 receptor (Homo sapiens, UniProt P0DMS8)
T1 construct: expressed in transfected cells; membrane fraction used
T1 sequence (P0DMS8 1-318): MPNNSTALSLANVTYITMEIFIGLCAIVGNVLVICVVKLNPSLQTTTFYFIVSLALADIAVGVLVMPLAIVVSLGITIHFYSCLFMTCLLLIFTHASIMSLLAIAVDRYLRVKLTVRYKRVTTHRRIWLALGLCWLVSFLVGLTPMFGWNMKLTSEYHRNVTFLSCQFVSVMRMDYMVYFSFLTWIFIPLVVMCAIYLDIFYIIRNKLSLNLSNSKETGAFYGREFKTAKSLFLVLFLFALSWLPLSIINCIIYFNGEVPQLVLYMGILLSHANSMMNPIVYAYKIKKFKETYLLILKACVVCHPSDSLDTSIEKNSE
Assay: Binding assay with adenosine A3 receptor: [3H]-NECA binding to membranes of A3AR/CHO cells
Conditions: 10 nM [3H]-NECA, 100 μg/ml A3AR/CHO cell membranes, 1 hour at room temperature; read-out: IC50 (concentration that inhibits 50% specific binding of [3H]-NECA to the membrane)
Protocol: (1) Cloning of Human Adenosine A3 Receptor
Cloning of the human adenosine A3 receptor gene was carried out by the polymerase chain reaction (PCR) from human brain cDNA. Using 1 ng of brain cDNA (Quick-Clone cDNA, TOYOBO, Osaka) as template, PCR was performed in DNA Thermal Cycler 480 (Perkin Elmer, Foster, Calif.) (reaction conditions: 35 cycles of 1 min at 95° C., 1 min at 66° C., and 2 min at 75° C.) by mixing primers (50 pmol each), 5′-[…]-3′ [Sequence No. 1] and 5′-[…]-3′ [Sequence No. 2], which were designed referring to nucleotide sequence of adenosine A3 receptor gene reported by Salvatore et. al., (Proc. Natl. Acad. Sci. U.S.A., 90:10365-10369, 1993) and TaKaRa LA PCR Kit Ver.2 (TaKaRa Shuzo Co. Ltd., Kyoto) in a Thermal cycler 480 (Parkin Elmer). The PCR product was electrophoresed and 1.0 kb DNA fragment was recovered. The DNA fragment encoding adenosine A3 receptor was cloned using Original TA Cloning Kit (FUNAKOSHI, Tokyo).
(3) Transfection of Adenosine A3 Receptor Expression Plasmid into CHO (dhfr^−) and the Expression
CHO (dhfr^−) cells were grown on Ham's F-12 medium (Nihon Selyaku, Tokyo) supplement with 10% fetal bovine serum (Life Tech Oriental; Life Technologies, Inc., Rockville, Md., USA) in a 750 ml Tissue culture flask (Becton Dickinson, Mt. View, Calif.). The growing cells were treated with 0.5 g/l trypsin-0.2 g/l EDTA (Life Technologies, Inc., Rockville, Md., USA) to harvest, washed with PBS (Life Technologies, Inc., Rockville, Md., USA), centrifugated at 1000 rpm for 5 min, and suspended in PBS. […] The cells were incubated in assay buffer I (HBSS (Wako chemicals, Osaka) containing 0.1% BSA, 0.25 mM PMSF, 1 μg/ml pepstatin, and 20 μg/ml leupeptin) to which was added 50 pM ^125I-AB-MECA (Amersham) as ligand, for 1 hour, and washed with assay buffer I. The radioactivity associated with the:.cell was measured in a γ-counter to select A3AR/CHO cells which specifically bind to the ligand. […]

IC50 | Compound
0.55 nM | COc1ccc(-c2nc(NC(C)=O)sc2-c2ccncc2)cc1 [13-89]
0.7 nM | COc1ccc(-c2nc(NC(=O)C(C)C)sc2-c2cccnc2)cc1 [13-92]
0.27 nM | COc1ccc(-c2nc(NC(C)=O)sc2-c2cccnc2)cc1 [Reference Example Compound 10, N-[4-(4-Methoxyphenyl)-5-(3-pyridyl)-1,3-thiazol-2-yl]acetamide]
